{"source": "patent US10597315B2", "about": "“Method of disinfection of drinking water using ozone and silver cations” (KAUNO TECHNOLOGIJOS UNIVERSITETAS, priority 2015, dated 2020)", "origin": "cited, not measured here", "key": {"[1]": {"conditions": "World Health Organization"}}}
{"smiles": "[Ag+]", "note": "[silver]", "values": [{"measurement": "Ingested silver absorbed in the intestine", "value": 10, "unit": "%"}, {"measurement": "Ingested silver excreted from the body via the faeces", "value": 90, "unit": "%"}, {"measurement": "Silver in drinking water tolerable without any risk to health", "setting": "[1]", "value": "up to 0.1 mg/kg"}]}
